# According to BindingDB's records for doi:10.1021/acsmedchemlett.0c00008 (Taisho Pharmaceutical, 2020):
# How the values were obtained:
# [1] = Inhibition of Human respiratory syncytial virus A2 Fusion protein expressed in Hep2 cells assessed as reduction in virus-induced cytopathic effect after 4 days by XTT assay
# [2] = Inhibition of Human respiratory syncytial virus Fusion protein D486N mutant expressed in Hep2 cells assessed as reduction in virus-induced cytopathic effect after 4 days by XTT assay
smiles,measurement,setting,value
CC[C@H]1c2cc3nc(N4CC[C@H](N)C4)cc(n3n2)N(C)CCCCOc2ccc(C)cc2C(=O)N1C,EC50,[1],0.66 nM
same,EC50,[2],440 nM
CC[C@@H](c1cc2nc(N3CC[C@H](N)C3)c(C)cn2n1)N(C)C(=O)c1cc(C)ccc1OC,EC50,[1],3.8 nM
same,EC50,[2],> 1000 nM
CC[C@H]1c2cc3nc(N4CC[C@H](N)C4)c(C)c(n3n2)NCCCCOc2ccc(C)cc2C(=O)N1C,EC50,[1],1.4 nM
same,EC50,[2],> 1000 nM
CC[C@H]1c2cc3nc(N4CC[C@H](N)C4)cc(n3n2)NCCCCOc2ccc(C)cc2C(=O)N1C,EC50,[1],61 nM
same,EC50,[2],> 1000 nM
CC[C@H]1c2cc3nc(N4CC[C@H](N)C4)cc(n3n2)N(C)CCCOc2ccc(C)cc2C(=O)N1C,EC50,[1],17 nM
same,EC50,[2],> 1000 nM
CC[C@H]1c2cc3nc(N4CC[C@H](N)C4)c(C)c(n3n2)N(C)CCCCOc2ccc(C)cc2C(=O)N1C,EC50,[1],8.1 nM
same,EC50,[2],> 1000 nM
Cc1ccc2c(c1)C(=O)N1CCCC[C@H]1c1cc3nc(N4CC[C@H](N)C4)cc(n3n1)N(C)CCCCO2,EC50,[1],2 nM
same,EC50,[2],8.1 nM
CC[C@H]1c2cc3nc(N4CC[C@H](N)C4)cc(n3n2)N(C)CCCCCOc2ccc(C)cc2C(=O)N1C,EC50,[1],6.2 nM
same,EC50,[2],> 1000 nM
CC[C@H]1c2cc3nc(N4CC[C@H](N)C4)cc(n3n2)N(C)CCCCCCOc2ccc(C)cc2C(=O)N1C,EC50,[1],54 nM
same,EC50,[2],> 1000 nM
